From patent US5340829A, “Immunoregulatory agents” (priority 1992, dated 1994)
“Also recorded” adds a separate entry of the source.

Assays:
aldose reductase = conditions: approximate molar concentration necessary for 50% inhibition of aldose reductase; cited from earlier work
[1] = system: Human polymorphonuclear leukocytes (PMNs); conditions: known from the art; cited from earlier work
[2] = system: delayed-type hypersensitivity (DTH); assay: DTH ear swelling, comparison of sorbinil, tolrestat, WF-3681 and NSAIDs (Experiment 23, TABLE 5); assay type: in vivo, mice; conditions: for Effect on DTH as measured by ear swelling (in words): mouse, in vivo
Method: Delayed type hypersensitivity, which involves the participation of T lymphocytes and macrophages, can be studied in vivo by exposing (or priming) a mammal to a novel antigen and then reexposing (or challenging) the primed animal to the same antigen four to seven days later. The classic DTH response includes symptoms of inflammatory response, induration and erythema, which peak at 24 to 48 hours after challenging and then decline slowly.
Eight-week old female C57BL/6J mice (Jackson Labs) were divided into primed and unprimed groups. The five mice in the primed group were primed to 2,4-dinitrofluorobenzene (DNFB; Sigma Chemical Co., Grade 1, approx. 98%, Lot 129C-0065, No. d-6879) by painting their shaved ventral skins with 0.1 ml of 0.5% DNFB in ethanol:acetone (3:1). The five mice in the unprimed group were shaved and topically painted on their ventral skins with the ethanol:acetone (3:1) vehicle alone. The mice in both groups were challenged with DNFB four days later. A suitable patch of skin, the ear, was chosen for challenging. One ear was designated for challenging and the other to serve as a control. The thickness of each ear across the pinna was measured using micrometer calipers. The first measurements were taken four days after priming and are plotted as day 0 in FIG. 13. Next, each mouse was subjected to the following challenge regimen: one ear was challenged with one drop of 0.35% DNFB in olive oil, and the other (unchallenged control) ear was exposed to olive oil alone. The ear thicknesses (ET) of the challenged ear and the unchallenged ear were measured daily, and the swelling responses are plotted in FIG. 13 as: [formula]
Three groups of eight-week old female C57BL/6J mice were primed to DNFB as previously described. […] Six hours later the first sets of ear measurements were taken, and one ear of each mouse was challenged.
The Table has 4 columns, listing (left to right) each drug tested in column 1, drug concentrations in column 2, relative swelling in column 3, and effectiveness in column 4.

[3] = system: ear swelling in response to PMA; conditions: general statement on NSAIDs; cited from earlier work
[4] = system: ear swelling produced by topical application of arachidonic acid; assay: Ear swelling produced by topical arachidonic acid (Experiment 22); assay type: in vivo, mice; conditions: topical administration
[5] = system: Human polymorphonuclear leukocytes (PMNs); assay: LTB4 release by polymorphonuclear leukocytes (Experiment 10); assay type: cell-based; conditions: normal human PMNs
From the text: Human polymorphonuclear leukocytes (PMNs) were used to study LTB4 release, which is known to be involved in inflammation.

[6] = concentration 8.5 μM, 0 = no effect

Structure (SMILES) | IC50 (aldose reductase) [µM] | relative swelling (R) ([2]; concentration 8.5 μM) | effectiveness (1 - R) (100%) [2, 6] [%] | Effect on DTH as measured by ear swelling (in words) [2] | also measured
CC(=O)Oc1ccccc1C(=O)O [Aspirin, acetylsalicylic acid] | ~100 | 1.0 | 0 | not effective in preventing DTH; also recorded: failed to inhibit DTH | LTB4 production (known) [1]: inhibit LTB4 production; Swelling of mouse ears in response to PMA (NSAIDs, stated in contrast) [3]: inhibit this response
COc1ccc2c(c1)c(CC(=O)O)c(C)n2C(=O)c1ccc(Cl)cc1 [indomethacin] | – | – | – | – | Ear swelling produced by topical arachidonic acid [4]: completely inhibited
CC(=O)Nc1ccc(O)cc1 [Acetaminophen, acetaminophen] | – | 1.0 | 0 | not effective in preventing DTH | –
C[C@@H]1O[C@@H](Oc2c(-c3ccc(O)c(O)c3)oc3cc(O)cc(O)c3c2=O)[C@H](O)[C@H](O)[C@H]1O [Quercitrin, quercitrin] | – | – | – | not effective in preventing DTH | effectiveness (1 - R) (100%) ([2]; concentration 3 μM): 2%; relative swelling (R) ([2]; concentration 3 μM): 0.98
CC1=C(/C=C/C(C)=C/C=C/C(C)=C/C(=O)O)C(C)(C)CCC1 [retinoic acid] | – | – | – | – | LTB4 production (known) [1]: inhibit LTB4 production
CCC1(c2ccccc2)C(=O)NC(=O)NC1=O [Phenobarbital, phenobarbital] | ~1000 | – | – | – | –
O=C(O)CCC1OC(=O)C(O)=C1c1ccccc1 (centres unmarked) [WF-3681, 3-(2,5-dihydro-4-hydroxy-5-oxo-3-phenyl-2-furyl)propionic acid] | – | – | – | strong and substantially identical inhibitory effect | Production of LTB4 [5]: no effect; effectiveness (1 - R) (100%) ([2]; concentration 2.125 μM): 4%; relative swelling (R) ([2]; concentration 2.125 μM): 0.96; effectiveness (1 - R) (100%) ([2]; concentration 4.25 μM): 39%; relative swelling (R) ([2]; concentration 4.25 μM): 0.62; relative swelling (R) ([2]; concentration 6 μM): 0.68
CC(C)Cc1ccc(C(C)C(=O)O)cc1 (centres unmarked) [Ibuprofen, ibuprofen] | – | 1.0 | 0 | not effective in preventing DTH | –
O=c1c(O)c(-c2ccccc2)oc2ccccc12 [Hydroxyflavone, 3-hydroxyflavone] | ~1 | – | – | – | –
